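48-hour exposure; five concentrations; linearly interpolated endpoints. At the TGI there is no net growth.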
Columns and labels:
Assay in all cases: NCI-60 cell line screen, 48 h
[1] = tested on: 786-0 renal
[2] = tested on: A498 renal
[3] = tested on: A549 NSCLC
[4] = tested on: ACHN renal
[5] = tested on: BT-549 breast
[6] = tested on: CAKI-1 renal
[7] = tested on: CCRF-CEM leukemia
[8] = tested on: COLO 205 colon
[9] = tested on: DU-145 prostate
[10] = tested on: EKVX NSCLC
[11] = tested on: HCC-2998 colon
[12] = tested on: HCT-116 colon
[13] = tested on: HCT-15 colon
[14] = tested on: HL-60(TB) leukemia
[15] = tested on: HOP-62 NSCLC
[16] = tested on: HOP-92 NSCLC
[17] = tested on: HS 578T breast
[18] = tested on: HT29 colon
[19] = tested on: IGROV1 ovarian
[20] = tested on: K-562 leukemia
[21] = tested on: KM12 colon
[22] = tested on: LOX IMVI melanoma
[23] = tested on: M14 melanoma
[24] = tested on: MALME-3M melanoma
[25] = tested on: MCF7 breast
[26] = tested on: MDA-MB-231 breast
[27] = tested on: MDA-MB-435
[28] = tested on: MDA-N
[29] = tested on: NCI-H226 lung
[30] = tested on: NCI-H23 lung
[31] = tested on: NCI-H460 lung
[32] = tested on: NCI-H522 lung
[33] = tested on: NCI/ADR-RES ovarian
[34] = tested on: OVCAR-3 ovarian
[35] = tested on: OVCAR-4 ovarian
[36] = tested on: OVCAR-5 ovarian
[37] = tested on: OVCAR-8 ovarian
[38] = tested on: PC-3 prostate
[39] = tested on: RPMI-8226 leukemia
[40] = tested on: RXF 393 renal
[41] = tested on: SF-268 CNS
[42] = tested on: SF-295 CNS
[43] = tested on: SK-MEL-2 melanoma
[44] = tested on: SK-MEL-28 melanoma
[45] = tested on: SK-MEL-5 melanoma
[46] = tested on: SK-OV-3 ovarian
[47] = tested on: SN12C renal
[48] = tested on: SNB-19 CNS
[49] = tested on: SNB-75 CNS
[50] = tested on: SR leukemia
[51] = tested on: SW-620 colon
[52] = tested on: T-47D breast
[53] = tested on: TK-10 renal
[54] = tested on: U251 CNS
[55] = tested on: UACC-257 melanoma
[56] = tested on: UACC-62 melanoma
[57] = tested on: UO-31 renal
[58] = tested on: MOLT-4 leukemia
[59] = tested on: SF-539 CNS

Measured: TGI

CC(=O)Nc1c(C)cc(OCC(=O)O)cc1C
not listed: [58] | [59]
> 100 µM: all other assays above

COc1ccc(NC=O)c(C(O)CCNC(C)=O)c1 (stereo unspecified)
not listed: [11] | [15] | [24] | [44]
> 100 µM: all other assays above

Cc1[nH]c2ncn(/N=C/c3ccccc3)c(=N)c2c1Cc1ccccc1
not listed: [24] | [32] | [45] | [50]
> 100 µM: all other assays above

Nc1ncc2c(n1)-c1ccccc1OC2NC1CC1 (stereo unspecified)
not listed: [11] | [15] | [20] | [24] | [44]
> 100 µM: all other assays above

From PubChem BioAssay (NCI)
